Reference: patent US11884693B2, “1,3-acetonedicarboxylate-derived amphipathic compounds and uses thereof” (INDUSTRY-UNIVERSITY COOPERATION FOUNDATION HANYANG …, priority 2022, dated 2024)

Key:
[1] = Micelle size by dynamic light scattering (DLS); assay type: physicochemical; settings: micelles at 1.0% by weight
Experimental: A method of measuring the radius of the micelles is not particularly limited, but methods widely known in the related art may be used. For example, the radius of the micelles may be measured using a dynamic light scattering (DLS) experiment.
(§1) To check the characteristics of ACAs synthesized according to the synthesis methods of Examples 1 to 4, critical micelle concentrations (CMCs) of the ACAs and hydrodynamic diameters (DO of the formed micelles were measured.
(§2) Specifically, the critical micelle concentration (CMC) was measured by fluorescence staining using diphenylhexatriene (DPH), and the hydrodynamic diameters (Dh) of the micelles formed by each of the preparations (1.0% by weight) were measured by means of a dynamic light scattering (DLS) experiment. The measured results are shown in Table 1 in comparison to DDM and octyl glucoside neopentyl glycol (OGNG), two existing amphipathic molecule (detergent).
In addition, the size distribution of the micelles formed by ACAs was examined by DLS. As a result, it was confirmed that the size of the micelles increased with an increasing length of the alkyl chain. This is because a compound having a cylindrical structure easy for self-assemblage is formed as more carbon is added to the hydrophobic end (FIG. 3).

[2] = Critical micelle concentration by fluorescence staining using diphenylhexatriene (DPH); assay type: physicochemical; settings: aqueous solution
Experimental: A method of measuring the CMC is not particularly limited, but a method widely known in the art may be used, and for example, the CMC may be measured by a fluorescent staining method using diphenylhexatriene (DPH).
as §1, §2

[3] = Water solubility of the detergents; assay type: physicochemical
[4] = molecular target: T1, melibiose permease of Salmonella typhimurium (MelBSt) (Salmonella typhimurium, UniProt P30878); assay: MelBSt extraction and thermal solubilization, SDS-PAGE and immunoblotting; assay type: biochemical; settings: 1.5% (w/v) detergent, 90 min incubation at 55° C.
T1 construct: made in house; host or cells: E. coli DW2 (ΔmelB, ΔlacZY), plasmid pK95ΔΔHB/WT MelBSt/CH10
T1 sequence (P30878 whole entry): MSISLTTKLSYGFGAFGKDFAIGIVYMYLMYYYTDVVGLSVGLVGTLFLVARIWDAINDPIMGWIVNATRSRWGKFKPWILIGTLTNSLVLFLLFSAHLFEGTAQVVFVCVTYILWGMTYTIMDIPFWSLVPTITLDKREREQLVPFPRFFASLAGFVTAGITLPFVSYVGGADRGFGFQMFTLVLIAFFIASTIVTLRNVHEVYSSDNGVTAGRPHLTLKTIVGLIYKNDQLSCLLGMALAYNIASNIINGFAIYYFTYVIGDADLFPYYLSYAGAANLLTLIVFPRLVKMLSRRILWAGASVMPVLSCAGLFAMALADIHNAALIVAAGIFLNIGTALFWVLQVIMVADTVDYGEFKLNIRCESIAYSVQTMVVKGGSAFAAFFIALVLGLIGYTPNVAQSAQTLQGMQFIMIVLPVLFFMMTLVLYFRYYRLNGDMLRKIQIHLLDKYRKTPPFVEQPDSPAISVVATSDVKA
Experimental: Melibiose and other galactoside transporter MelB was produced by E. coli DW2 strain (ΔmelB and ΔlacZY) harboring pK95ΔΔHB/WT MelBSt/CH10 plasmid. The plasmid contains the gene encoding the wild-type melibiose permease of Salmonella typhimurium (MelBSt) with a 10-His tag at the C-terminus. Cell growth and membrane preparation were carried out as described in A. S. Ethayathulla, et al., Nat. Commun. 2014, 5, 3009. Protein assay was carried out with a Micro BCA kit (Thermo Scientific). The membrane samples containing MelBSt (10 mg/mL) in a solubilization buffer (20 mM sodium phosphate, pH 7.5, 200 mM NaCl, 10% glycerol and 20 mM melibiose) were mixed with each individual detergent (ACA-SCs, ACA-ACs and DDM) at 1.5% (w/v). Protein extractions were carried out at 0° C. for 90 min. The protein samples were further incubated at three different temperatures (45, 55, and 65° C.) for 90 min. After extraction and incubation, insoluble fractions were removed by ultracentrifugation at 355,590 g in a Beckman Optima™ MAX Ultracentrifuge using a TLA-100 rotor for 45 min at 4° C. […] membrane proteins without ultracentrifugation and detergent extracts after the ultracentrifugation with the same volume were loaded for analysis by SDS-15% PAGE, and immunoblotting with a HisProbe-HRP antibody (Thermo Scientific) was conducted for visualizing the MelBSt.

[5] = molecular target: T2, mouse u-opioid receptor (MOR) (Mus musculus, UniProt P42866); assay: MOR long-term stability, [3H]-diprenorphine ligand binding; assay type: biochemical; settings: 0.1 wt % detergent, 4° C., after 8 hours of incubation
T2 construct: made in house
T2 sequence (P42866 whole entry): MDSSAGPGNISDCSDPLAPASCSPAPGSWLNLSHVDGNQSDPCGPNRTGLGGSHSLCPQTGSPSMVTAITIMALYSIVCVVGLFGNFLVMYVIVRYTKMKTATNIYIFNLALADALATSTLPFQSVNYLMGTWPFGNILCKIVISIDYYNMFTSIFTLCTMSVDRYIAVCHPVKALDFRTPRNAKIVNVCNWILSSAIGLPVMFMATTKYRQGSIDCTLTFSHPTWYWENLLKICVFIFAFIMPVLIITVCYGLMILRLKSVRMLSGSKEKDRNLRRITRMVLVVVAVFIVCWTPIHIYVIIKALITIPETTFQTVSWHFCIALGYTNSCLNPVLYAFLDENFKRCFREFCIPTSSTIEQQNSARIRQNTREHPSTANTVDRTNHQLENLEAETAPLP
Experimental: To perform a long-term stability analysis, MOR in 0.1% LMNG was purified. […] MOR in each detergent was incubated for five days at 4° C. and its ligand binding capacity was measured at regular intervals during the incubation. The ligand binding ability of the receptor was measured by adding ˜1 nM of radioactive [^3H]-diprenorphine (DPN). The [^3H]-DPN-containing mixture was immobilized to an anti-flag resin and the resin was collected using GF/B filter paper and scintillation fluid was added into the filter paper. Receptor-bound […] was measured with a scintillation counter (Beckman).

Row | Compound | Rh (nm) [1] [nm] | CMC [2] [mM] | CMC (% by weight) [2] [% by weight] | Solubility (% by weight) [3] [% by weight] | MelBSt solubilization ability [4] | residual activity of MOR [5] [%]
1 | CCCCCCCCCCC(CCCCCCCCCC)(COC1OC(CO)C(O)C(O)C1O)C(CCOC1OC(CO)C(O)C(O)C1O)OC1OC(CO)C(O)C(O)C1O (mixture of isomers) [ACA-AC10] | 2.7 ± 0.2 | ~0.019 | ~0.0017 | >10 |  | 
2 | CCCCCCCCCCCC(CCCCCCCCCCC)(COC1OC(CO)C(O)C(O)C1O)C(CCOC1OC(CO)C(O)C(O)C1O)OC1OC(CO)C(O)C(O)C1O (mixture of isomers) [ACA-AC11] | 3.3 ± 0.2 | ~0.014 | ~0.0013 | ~10 | approximately 70% | 
3 | CCCCCCCCCCCCC(CCCCCCCCCCCC)(COC1OC(CO)C(O)C(O)C1O)C(CCOC1OC(CO)C(O)C(O)C1O)OC1OC(CO)C(O)C(O)C1O (mixture of isomers) [ACA-AC12] | 8.9 ± 0.7 | ~0.012 | ~0.0011 | ~9 |  | 
4 | CCCCCCCCCCCC(COC1OC(CO)C(O)C(O)C1O)C(OC1OC(CO)C(O)C(O)C1O)C(CCCCCCCCCCC)COC1OC(CO)C(O)C(O)C1O (mixture of isomers) [ACA-SC11] | 2.9 ± 0.3 | ~0.010 | ~0.0009 | ~10 | approximately 60% | 
5 | CCCCCCCCCCCCC(COC1OC(CO)C(O)C(O)C1O)C(OC1OC(CO)C(O)C(O)C1O)C(CCCCCCCCCCCC)COC1OC(CO)C(O)C(O)C1O (mixture of isomers) [ACA-SC12] | 8.3 ± 0.1 | ~0.007 | ~0.0007 | ~10 |  | 
6 | CCCCCCCCCCCCCC(COC1OC(CO)C(O)C(O)C1O)C(OC1OC(CO)C(O)C(O)C1O)C(CCCCCCCCCCCCC)COC1OC(CO)C(O)C(O)C1O (mixture of isomers) [ACA-SC13] | 13.9 ± 1.1 | ~0.005 | ~0.0005 | ~5 |  | 
7 | CCCCCCCCCCCCO[C@@H]1O[C@H](CO)[C@@H](O[C@H]2O[C@H](CO)[C@@H](O)[C@H](O)[C@H]2O)[C@H](O)[C@H]1O [DDM, n-dodecyl-β-D-maltopyranoside, reference compound] | 3.4 ± 0.3 | 0.17 | 0.0087 | >10 |  | 10
8 | CCCCCCC(CCCCCC)(CO[C@@H]1O[C@H](CO)[C@@H](O)[C@H](O)[C@H]1O)CO[C@@H]1O[C@H](CO)[C@@H](O)[C@H](O)[C@H]1O [OGNG, octyl glucoside neopentyl glycol, reference compound] | 4.4 ± 0.3 | ~1.0 | ~0.058 | >10 |  | 
